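Test compounds were applied to cells in 96-well plates for 48 hours at 5 doses. GI50 marks 50% less growth.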 Calls of active or inactive are those of the source. No stated cut-off is given here; in the data, active = GI50 up to about 1.1 µM and inactive = higher.
Tests used:
Assay in all cases: NCI-60 cell line screen, 48 h
[1] = system: XF498
[2] = system: A498
[3] = system: NCI-H226
[4] = system: DLD-1
[5] = system: RXF 393
[6] = system: K562
[7] = system: HOP-92
[8] = system: RPMI-8226
[9] = system: ACHN
[10] = system: Malme-3M
[11] = system: DMS-114
[12] = system: UO-31
[13] = system: LOX IMVI
[14] = system: CAKI-1
[15] = system: OVCAR-5
[16] = system: HT-29
[17] = system: OVCAR-3
[18] = system: SF-295
[19] = system: M19-MEL
[20] = system: M14
[21] = system: HCT-116
[22] = system: SF-268
[23] = system: OVCAR-8
[24] = system: U-251
[25] = system: RXF 631
[26] = system: CCRF-CEM
[27] = system: KM-20L2
[28] = system: SF-539
[29] = system: KM12
[30] = system: SK-OV-3
[31] = system: NCI-H522
[32] = system: HL-60
[33] = system: SR
[34] = system: A549
[35] = system: IGROV-1
[36] = system: DMS-273
[37] = system: LXFL 529
[38] = system: TK-10
[39] = system: NCI-H460
[40] = system: SNB-19
[41] = system: NCI-H23
[42] = system: HOP-62
[43] = system: 786-0
[44] = system: MOLT-4
[45] = system: SK-MEL-28
[46] = system: OVCAR-4
[47] = system: COLO 205
[48] = system: HCT-15
[49] = system: SNB-78
[50] = system: HOP-18
[51] = system: SW-620
[52] = system: SK-MEL-2
[53] = system: UACC-62
[54] = system: EKVX
[55] = system: SN12C
[56] = system: SNB-75
[57] = system: UACC-257
[58] = system: SK-MEL-5
[59] = system: HCC 2998

`CN(c1ccccc1)c1cc2ccccc2nn1` was tested, and the GI50 [1] was 67 µM (inactive), the GI50 [2] was > 100 µM (inactive) and the GI50 [3] was > 100 µM (inactive). The GI50 [4] was > 100 µM (inactive), the GI50 [5] was > 100 µM (inactive) and the GI50 [6] was 89.7 µM (inactive). The GI50 [7] was > 100 µM (inactive), the GI50 [8] was 70 µM (inactive) and the GI50 [9] was 74 µM (inactive). The GI50 [10] was 87.1 µM (inactive), the GI50 [11] was 52.2 µM (inactive) and the GI50 [12] was 29.3 µM (inactive). The GI50 [13] was 84.5 µM (inactive), the GI50 [14] was > 100 µM (inactive) and the GI50 [15] was > 100 µM (inactive). The GI50 [16] was > 100 µM (inactive), the GI50 [17] was 53.8 µM (inactive) and the GI50 [18] was 67.9 µM (inactive). The GI50 [19] was 59.2 µM (inactive), the GI50 [20] was > 100 µM (inactive) and the GI50 [21] was > 100 µM (inactive). For the same compound, the GI50 [22] was > 100 µM (inactive), the GI50 [23] was > 100 µM (inactive) and the GI50 [24] was 81.8 µM (inactive). For the same compound, the GI50 [25] was 34.1 µM (inactive), the GI50 [26] was 47.1 µM (inactive) and the GI50 [27] was > 100 µM (inactive). For the same compound, the GI50 [28] was > 100 µM (inactive), the GI50 [29] was > 100 µM (inactive) and the GI50 [30] was > 100 µM (inactive). For the same compound, the GI50 [31] was 27.6 µM (inactive), the GI50 [32] was 30.5 µM (inactive) and the GI50 [33] was > 100 µM (inactive). For the same compound, the GI50 [34] was > 100 µM (inactive), the GI50 [35] was > 100 µM (inactive) and the GI50 [36] was > 100 µM (inactive). For the same compound, the GI50 [37] was 56.1 µM (inactive), the GI50 [38] was > 100 µM (inactive) and the GI50 [39] was > 100 µM (inactive). The GI50 [40] was > 100 µM (inactive), the GI50 [41] was > 100 µM (inactive) and the GI50 [42] was > 100 µM (inactive). The GI50 [43] was > 100 µM (inactive), the GI50 [44] was 52.7 µM (inactive) and the GI50 [45] was > 100 µM (inactive). For the same compound, the GI50 [46] was > 100 µM (inactive), the GI50 [47] was > 100 µM (inactive) and the GI50 [48] was over 100 µM. For the same compound, the GI50 [49] was > 100 µM (inactive), the GI50 [50] was > 100 µM (inactive) and the GI50 [51] was > 100 µM (inactive). The GI50 [52] was > 100 µM (inactive), the GI50 [53] was > 100 µM (inactive) and the GI50 [54] was 65.8 µM (inactive). For the same compound, the GI50 [55] was > 100 µM (inactive), the GI50 [56] was 64.3 µM (inactive) and the GI50 [57] was > 100 µM (inactive). For the same compound, the GI50 [58] was 43.2 µM (inactive).
In the case of `COC(=O)/C(=N\NC(N)=S)C(C(=O)OC)C(=O)C(=O)Nc1ccc(C)cc1` (stereo unspecified), the GI50 [1] is reported as > 100 µM (inactive), the GI50 [2] is reported as > 100 µM (inactive) and the GI50 [3] is reported as > 100 µM (inactive). The GI50 [4] was > 100 µM (inactive), the GI50 [5] was > 100 µM (inactive) and the GI50 [6] was > 100 µM (inactive). For the same compound, the GI50 [8] was > 100 µM (inactive), the GI50 [9] was > 100 µM (inactive) and the GI50 [10] was > 100 µM (inactive). The GI50 [11] was > 100 µM (inactive), the GI50 [12] was > 100 µM (inactive) and the GI50 [13] was > 100 µM (inactive). The GI50 [14] was > 100 µM (inactive), the GI50 [15] was > 100 µM (inactive) and the GI50 [59] was > 100 µM (inactive). The GI50 [16] was > 100 µM (inactive), the GI50 [17] was > 100 µM (inactive) and the GI50 [18] was > 100 µM (inactive). The GI50 [19] was > 100 µM (inactive), the GI50 [20] was > 100 µM (inactive) and the GI50 [21] was > 100 µM (inactive). The GI50 [22] was > 100 µM (inactive), the GI50 [23] was > 100 µM (inactive) and the GI50 [24] was > 100 µM (inactive). The GI50 [25] was > 100 µM (inactive), the GI50 [26] was > 100 µM (inactive) and the GI50 [27] was > 100 µM (inactive). The GI50 [28] was > 100 µM (inactive), the GI50 [29] was > 100 µM (inactive) and the GI50 [30] was > 100 µM (inactive). For the same compound, the GI50 [31] was > 100 µM (inactive), the GI50 [32] was > 100 µM (inactive) and the GI50 [33] was > 100 µM (inactive). The GI50 [34] was > 100 µM (inactive), the GI50 [35] was > 100 µM (inactive) and the GI50 [36] was > 100 µM (inactive). The GI50 [37] was > 100 µM (inactive), the GI50 [38] was > 100 µM (inactive) and the GI50 [39] was > 100 µM (inactive). For the same compound, the GI50 [40] was > 100 µM (inactive), the GI50 [41] was > 100 µM (inactive) and the GI50 [42] was > 100 µM (inactive). The GI50 [43] was > 100 µM (inactive), the GI50 [44] was > 100 µM (inactive) and the GI50 [45] was > 100 µM (inactive). For the same compound, the GI50 [46] was > 100 µM (inactive), the GI50 [47] was > 100 µM (inactive) and the GI50 [48] was over 100 µM. For the same compound, the GI50 [49] was > 100 µM (inactive), the GI50 [50] was > 100 µM (inactive) and the GI50 [51] was > 100 µM (inactive). The GI50 [52] was > 100 µM (inactive), the GI50 [53] was > 100 µM (inactive) and the GI50 [54] was > 100 µM (inactive). The GI50 [55] was > 100 µM (inactive), the GI50 [56] was 41.9 µM (inactive) and the GI50 [57] was > 100 µM (inactive). The GI50 [58] was > 100 µM (inactive).
For `Clc1ccccc1C1=NN(c2ccccc2)C2c3ccccc3OCC12` (stereo unspecified), the GI50 [1] was > 100 µM (inactive), the GI50 [2] was > 100 µM (inactive) and the GI50 [4] was > 100 µM (inactive). For the same compound, the GI50 [5] was > 100 µM (inactive), the GI50 [6] was 44.3 µM (inactive) and the GI50 [7] was 39.6 µM (inactive). For the same compound, the GI50 [8] was 34.1 µM (inactive), the GI50 [9] was > 100 µM (inactive) and the GI50 [10] was > 100 µM (inactive). For the same compound, the GI50 [11] was > 100 µM (inactive), the GI50 [12] was > 100 µM (inactive) and the GI50 [13] was 88.1 µM (inactive). The GI50 [15] was > 100 µM (inactive), the GI50 [59] was > 100 µM (inactive) and the GI50 [16] was 58.5 µM (inactive). For the same compound, the GI50 [17] was > 100 µM (inactive), the GI50 [18] was 79.6 µM (inactive) and the GI50 [19] was > 100 µM (inactive). The GI50 [21] was 43.3 µM (inactive), the GI50 [22] was > 100 µM (inactive) and the GI50 [23] was > 100 µM (inactive). The GI50 [24] was > 100 µM (inactive), the GI50 [25] was > 100 µM (inactive) and the GI50 [26] was 64.9 µM (inactive). For the same compound, the GI50 [27] was 73.3 µM (inactive), the GI50 [29] was > 100 µM (inactive) and the GI50 [30] was > 100 µM (inactive). For the same compound, the GI50 [31] was > 100 µM (inactive), the GI50 [32] was 41.6 µM (inactive) and the GI50 [34] was > 100 µM (inactive). For the same compound, the GI50 [35] was > 100 µM (inactive), the GI50 [36] was 83.8 µM (inactive) and the GI50 [37] was 66.7 µM (inactive). For the same compound, the GI50 [38] was > 100 µM (inactive), the GI50 [39] was > 100 µM (inactive) and the GI50 [40] was > 100 µM (inactive). The GI50 [41] was > 100 µM (inactive), the GI50 [42] was > 100 µM (inactive) and the GI50 [43] was 74.5 µM (inactive). For the same compound, the GI50 [44] was 57.8 µM (inactive), the GI50 [45] was > 100 µM (inactive) and the GI50 [47] was > 100 µM (inactive). The GI50 [49] was > 100 µM (inactive), the GI50 [50] was 27.8 µM (inactive) and the GI50 [51] was > 100 µM (inactive). For the same compound, the GI50 [52] was > 100 µM (inactive), the GI50 [54] was > 100 µM (inactive) and the GI50 [56] was > 100 µM (inactive). The GI50 [57] was 79.3 µM (inactive) and the GI50 [58] was 79.6 µM (inactive).
